Results from ChEMBL document CHEMBL4007467, “Effects of 6-paradol, an unsaturated ketone from gingers, on cytochrome P450-mediated drug metabolism” (Bioorg Med Chem Lett, 2017).

Assays:
Assay type in all cases: ADME
CYP2A6 [1] = target: T1, CYP2A6 (Homo sapiens, UniProt P11509); assay: Inhibition of CYP2A6 in human liver microsomes assessed as enzyme-mediated metabolite formation at 1 uM using coumarin as substrate incubated for 5 mins followed by NADPH addition measured after 30 mins by LC-MS/MS analysis relative to control; set-up: scale not given: the % may be the effect or the level left; conditions: probe coumarin, read-out: Activity
T1 sequence (P11509 whole entry): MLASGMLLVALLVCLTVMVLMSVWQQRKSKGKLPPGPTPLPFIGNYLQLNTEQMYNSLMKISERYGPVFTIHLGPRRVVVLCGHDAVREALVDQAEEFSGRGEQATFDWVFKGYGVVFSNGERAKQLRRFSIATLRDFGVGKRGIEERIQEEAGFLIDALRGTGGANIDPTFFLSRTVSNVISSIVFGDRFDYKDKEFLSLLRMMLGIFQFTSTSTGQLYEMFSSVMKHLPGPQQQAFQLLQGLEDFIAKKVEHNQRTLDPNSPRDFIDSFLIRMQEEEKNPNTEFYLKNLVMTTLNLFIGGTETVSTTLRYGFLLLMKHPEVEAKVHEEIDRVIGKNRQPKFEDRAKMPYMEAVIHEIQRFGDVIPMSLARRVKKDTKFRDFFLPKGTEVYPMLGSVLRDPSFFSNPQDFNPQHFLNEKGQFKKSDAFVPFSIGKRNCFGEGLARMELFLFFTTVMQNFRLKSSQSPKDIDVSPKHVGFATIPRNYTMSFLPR

CYP2B6 = target: T2, CYP2B6 (Homo sapiens, UniProt P20813); assay: Inhibition of CYP2B6 in human liver microsomes assessed as enzyme-mediated metabolite formation at 0.3 uM using bupropion as substrate incubated for 5 mins followed by NADPH addition measured after 30 mins by LC-MS/MS analysis relative to control; set-up: scale not given: the % may be the effect or the level left; conditions: probe bupropion, read-out: Activity
T2 sequence (P20813 whole entry): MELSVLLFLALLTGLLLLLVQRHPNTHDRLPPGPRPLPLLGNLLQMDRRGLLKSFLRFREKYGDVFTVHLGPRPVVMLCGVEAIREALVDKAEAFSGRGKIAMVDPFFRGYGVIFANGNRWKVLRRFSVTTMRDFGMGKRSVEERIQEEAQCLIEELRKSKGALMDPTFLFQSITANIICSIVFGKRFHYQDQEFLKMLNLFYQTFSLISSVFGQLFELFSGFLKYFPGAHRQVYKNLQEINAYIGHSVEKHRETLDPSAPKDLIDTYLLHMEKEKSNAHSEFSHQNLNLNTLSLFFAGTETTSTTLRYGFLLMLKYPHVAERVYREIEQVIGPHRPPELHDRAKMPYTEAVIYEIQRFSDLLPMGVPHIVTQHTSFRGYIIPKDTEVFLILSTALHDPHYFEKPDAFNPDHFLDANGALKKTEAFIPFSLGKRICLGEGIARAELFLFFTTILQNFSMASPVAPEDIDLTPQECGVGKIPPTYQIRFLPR

CYP2C8 [2] = target: T3, CYP2C8 (Homo sapiens, UniProt P10632); assay: Inhibition of CYP2C8 in human liver microsomes assessed as enzyme-mediated metabolite formation at 0.1 uM using paclitaxel as substrate incubated for 5 mins followed by NADPH addition measured after 30 mins by LC-MS/MS analysis relative to control; set-up: scale not given: the % may be the effect or the level left; conditions: probe paclitaxel, read-out: Activity
T3 sequence (P10632 whole entry): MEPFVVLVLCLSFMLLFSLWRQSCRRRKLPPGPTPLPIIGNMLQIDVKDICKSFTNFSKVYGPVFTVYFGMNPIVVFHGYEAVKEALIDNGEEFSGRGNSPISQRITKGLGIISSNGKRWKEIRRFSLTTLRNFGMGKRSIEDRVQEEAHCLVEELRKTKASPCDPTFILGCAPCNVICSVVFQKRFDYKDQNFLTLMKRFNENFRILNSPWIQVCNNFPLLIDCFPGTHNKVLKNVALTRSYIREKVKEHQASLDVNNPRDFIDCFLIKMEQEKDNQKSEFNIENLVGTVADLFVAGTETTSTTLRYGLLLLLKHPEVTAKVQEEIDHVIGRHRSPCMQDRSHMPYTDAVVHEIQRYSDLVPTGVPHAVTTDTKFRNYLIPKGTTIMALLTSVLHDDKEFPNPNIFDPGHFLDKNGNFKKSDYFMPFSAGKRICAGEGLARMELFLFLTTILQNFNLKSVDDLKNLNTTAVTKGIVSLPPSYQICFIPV

CYP2C8 [3] = target: T3, CYP2C8; assay: Inhibition of CYP2C8 in human liver microsomes assessed as enzyme-mediated metabolite formation at 3 uM using paclitaxel as substrate incubated for 5 mins followed by NADPH addition measured after 30 mins by LC-MS/MS analysis relative to control; set-up: scale not given: the % may be the effect or the level left; conditions: probe paclitaxel, read-out: Activity
CYP2C19 [4] = target: T4, CYP2C19 (Homo sapiens, UniProt P33261); assay: Inhibition of CYP2C19 in human liver microsomes assessed as enzyme-mediated metabolite formation at 30 uM using (S)-mephenytoin as substrate incubated for 5 mins followed by NADPH addition measured after 30 mins by LC-MS/MS analysis relative to control; set-up: scale not given: the % may be the effect or the level left; conditions: probe (S)-mephenytoin, read-out: Activity
Cytochrome P450 3A4 = Cytochrome P450 3A4 (Homo sapiens, UniProt P08684); assay: Inhibition of CYP3A4 in human liver microsomes assessed as enzyme-mediated metabolite formation using testosterone as substrate incubated for 5 mins followed by NADPH addition measured after 30 mins by LC-MS/MS analysis
CYP2A6 [5] = target: T1, CYP2A6; assay: Inhibition of CYP2A6 in human liver microsomes assessed as enzyme-mediated metabolite formation at 0.1 uM using coumarin as substrate preincubated for 20 mins followed by substrate addition measured after 30 mins in presence of NADPH by LC-MS/MS analysis relative to control; set-up: scale not given: the % may be the effect or the level left; conditions: probe coumarin, read-out: Activity
CYP2C9 [6] = target: T5, CYP2C9 (Homo sapiens, UniProt P11712); assay: Inhibition of CYP2C9 in human liver microsomes assessed as enzyme-mediated metabolite formation at 0.1 uM using diclofenac as substrate preincubated for 20 mins followed by substrate addition measured after 30 mins in presence of NADPH by LC-MS/MS analysis relative to control; set-up: scale not given: the % may be the effect or the level left; conditions: probe diclofenac, read-out: Activity
CYP2C9 [7] = target: T5, CYP2C9; assay: Inhibition of CYP2C9 in human liver microsomes assessed as enzyme-mediated metabolite formation at 3 uM using diclofenac as substrate preincubated for 20 mins followed by substrate addition measured after 30 mins in presence of NADPH by LC-MS/MS analysis relative to control; set-up: scale not given: the % may be the effect or the level left; conditions: probe diclofenac, read-out: Activity
CYP2C19 [8] = target: T4, CYP2C19; assay: Inhibition of CYP2C19 in human liver microsomes assessed as enzyme-mediated metabolite formation at 0.3 uM using (S)-mephenytoin as substrate preincubated for 20 mins followed by substrate addition measured after 30 mins in presence of NADPH by LC-MS/MS analysis relative to control; set-up: scale not given: the % may be the effect or the level left; conditions: probe (S)-mephenytoin, read-out: Activity
CYP3A4 [9] = target: T6, CYP3A4 (Homo sapiens, UniProt P08684); assay: Inhibition of CYP3A4 in human liver microsomes assessed as enzyme-mediated metabolite formation at 30 uM using midazolam as substrate preincubated for 20 mins followed by substrate addition measured after 30 mins in presence of NADPH by LC-MS/MS analysis relative to control; set-up: scale not given: the % may be the effect or the level left; conditions: probe midazolam, read-out: Activity
CYP3A4 [10] = target: T6, CYP3A4; assay: Inhibition of CYP3A4 in human liver microsomes assessed as enzyme-mediated metabolite formation at 3 uM using testosterone as substrate preincubated for 20 mins followed by substrate addition measured after 30 mins in presence of NADPH by LC-MS/MS analysis relative to control; set-up: scale not given: the % may be the effect or the level left; conditions: probe testosterone, read-out: Activity

T5 sequence (P11712 whole entry): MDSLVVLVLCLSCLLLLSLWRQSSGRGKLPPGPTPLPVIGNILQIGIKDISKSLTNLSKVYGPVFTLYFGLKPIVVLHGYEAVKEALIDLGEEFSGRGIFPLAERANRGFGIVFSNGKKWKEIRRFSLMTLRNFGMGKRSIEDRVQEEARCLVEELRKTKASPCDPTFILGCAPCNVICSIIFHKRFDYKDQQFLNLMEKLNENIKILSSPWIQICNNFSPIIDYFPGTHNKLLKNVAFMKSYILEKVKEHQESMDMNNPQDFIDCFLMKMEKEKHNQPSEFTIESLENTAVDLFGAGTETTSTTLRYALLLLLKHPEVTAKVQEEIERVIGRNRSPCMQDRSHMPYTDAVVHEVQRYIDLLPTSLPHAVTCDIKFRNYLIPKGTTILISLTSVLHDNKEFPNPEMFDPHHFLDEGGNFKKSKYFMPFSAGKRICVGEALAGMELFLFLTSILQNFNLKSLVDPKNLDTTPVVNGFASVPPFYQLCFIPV
T4 sequence (P33261 whole entry): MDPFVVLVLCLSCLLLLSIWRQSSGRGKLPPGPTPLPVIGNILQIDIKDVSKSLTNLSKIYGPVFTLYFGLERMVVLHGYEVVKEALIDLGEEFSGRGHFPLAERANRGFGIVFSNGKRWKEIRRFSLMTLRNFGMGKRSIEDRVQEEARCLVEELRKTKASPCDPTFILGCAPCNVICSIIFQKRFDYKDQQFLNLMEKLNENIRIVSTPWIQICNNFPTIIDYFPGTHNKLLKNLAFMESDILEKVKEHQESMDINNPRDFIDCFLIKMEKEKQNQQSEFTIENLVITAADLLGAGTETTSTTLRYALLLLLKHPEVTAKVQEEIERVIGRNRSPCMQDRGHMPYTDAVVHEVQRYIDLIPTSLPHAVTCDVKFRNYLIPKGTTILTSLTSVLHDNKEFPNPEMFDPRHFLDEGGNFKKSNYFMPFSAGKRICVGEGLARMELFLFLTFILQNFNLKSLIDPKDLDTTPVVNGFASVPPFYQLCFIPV
T6 sequence (P08684 whole entry): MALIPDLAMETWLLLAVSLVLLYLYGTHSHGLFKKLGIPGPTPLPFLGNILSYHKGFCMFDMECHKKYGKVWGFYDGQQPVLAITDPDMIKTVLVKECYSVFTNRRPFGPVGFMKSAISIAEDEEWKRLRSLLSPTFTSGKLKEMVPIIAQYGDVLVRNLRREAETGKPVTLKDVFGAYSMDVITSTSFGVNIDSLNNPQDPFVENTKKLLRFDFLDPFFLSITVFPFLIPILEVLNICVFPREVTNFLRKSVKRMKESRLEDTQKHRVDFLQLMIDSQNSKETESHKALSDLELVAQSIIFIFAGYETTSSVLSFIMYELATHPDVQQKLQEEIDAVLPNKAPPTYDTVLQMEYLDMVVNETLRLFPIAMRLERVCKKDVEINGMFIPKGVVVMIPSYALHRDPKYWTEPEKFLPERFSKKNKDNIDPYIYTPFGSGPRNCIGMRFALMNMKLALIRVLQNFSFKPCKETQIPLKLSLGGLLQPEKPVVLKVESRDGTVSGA
Cytochrome P450 3A4, sequence (P08684 whole entry): as above

activity at 0.5 h, 1 µM (CYP2A6 [1]): 83.6%
activity at 0.5 h, 0.3 µM (CYP2B6): 68.8%
activity at 0.5 h, 0.1 µM (CYP2C8 [2]): 88.7%
activity at 0.5 h, 3 µM (CYP2C8 [3]): 58.7%
activity at 0.5 h, 30 µM (CYP2C19 [4]): 42%
IC50 (Cytochrome P450 3A4): 30 µM
activity at 0.5 h, 0.1 µM (CYP2A6 [5]): 96.5%
activity at 0.5 h, 0.1 µM (CYP2C9 [6]): 76%
activity at 0.5 h, 3 µM (CYP2C9 [7]): 78.8%
activity at 0.5 h, 0.3 µM (CYP2C19 [8]): 81.5%
activity at 0.5 h, 30 µM (CYP3A4 [9]): 97.6%
activity at 0.5 h, 3 µM (CYP3A4 [10]): 95.8%
SMILES: CCCCCCCC(=O)CCc1ccc(O)c(OC)c1
